Inhibition and IC50 data for 29 compounds are collected here from US20190031665A1, “DERIVATIVES OF PYRROLOIMIDAZOLE OR ANALOGUES THEREOF WHICH ARE USEFUL FOR THE TREATMENT OF INTER ALIA CANCER” (EMCURE PHARMACEUTICALS LIMITED, priority 2016, published 2019).

Structures are written as SMILES.

What is called inhibition is the percentage by which the read-out fell short of the control. What is called IC50 is the concentration that inhibits the measured activity by half. High values mean a need for much substance, low ones inhibition by little substance.

Test [1] addresses T1, human tryptophan 2,3-dioxygenase (hTDO) (Homo sapiens, UniProt P48775).
T1 construct: His tag (N); purchased BPS Bioscience, San Diego, Calif., USA; host or cells: E. coli
Briefly: In-vitro human tryptophan 2,3-dioxygenase (TDO) enzyme assay. The class given is biochemical. The following applies: for inhibition at 1 µM: hTDO enzyme at 1.0 μM concentration; for inhibition at 10 µM: hTDO enzyme at 10.0 μM concentration. In a few lines:
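N-His-tagged hTDO expressed in E. coli (125 ng) incubated with 200 μM L-tryptophan, 100 mM sodium phosphate pH 7.0, 0.01% Tween-20, 100 μM ascorbate, 60 min at 37 °C. Product converted with 200 mM piperidine (65 °C, 20 min) to NFK-PIP, fluorescence 400/500 nm; IC50 by nonlinear regression.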

Test [2] addresses T2, human indoleamine 2,3-dioxygenase 1 (hIDO1) (Homo sapiens, UniProt P14902).
T2 construct: His tag (N); purchased BPS Bioscience, San Diego, Calif., USA; host or cells: E. coli
The test can be described thus: In-vitro human indoleamine 2,3-dioxygenase 1 (IDO1) enzyme assay. It counts as biochemical. Conditions: for inhibition at 1 µM: hIDO1 enzyme at 1.0 μM concentration; for inhibition at 10 µM: hIDO1 enzyme at 10.0 μM concentration; for IC50: hIDO1 enzyme. In a few lines:
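His-tagged hIDO1 (E. coli, 50 ng) incubated with 80 μM tryptophan, 10 mM ascorbate, 10 μM methylene blue, catalase and 0.01% Tween-20 in 50 mM sodium phosphate pH 6.5, 60 min, 37 °C. Piperidine converts N-formylkynurenine to fluorescent NFK-PIP (ex 400/em 500 nm); IC50 by nonlinear regression.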

T2 sequence (P14902 whole entry): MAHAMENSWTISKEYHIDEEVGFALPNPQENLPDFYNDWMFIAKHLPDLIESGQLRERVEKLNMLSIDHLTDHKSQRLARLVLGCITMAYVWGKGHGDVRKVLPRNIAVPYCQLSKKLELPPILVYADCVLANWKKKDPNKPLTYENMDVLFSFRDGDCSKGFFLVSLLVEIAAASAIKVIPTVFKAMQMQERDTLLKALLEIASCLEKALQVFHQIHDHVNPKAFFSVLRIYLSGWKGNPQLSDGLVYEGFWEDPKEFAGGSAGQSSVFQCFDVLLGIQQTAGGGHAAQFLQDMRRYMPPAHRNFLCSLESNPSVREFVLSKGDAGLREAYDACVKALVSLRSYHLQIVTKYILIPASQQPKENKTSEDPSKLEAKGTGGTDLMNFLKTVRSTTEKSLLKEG
T1 sequence (P48775 whole entry): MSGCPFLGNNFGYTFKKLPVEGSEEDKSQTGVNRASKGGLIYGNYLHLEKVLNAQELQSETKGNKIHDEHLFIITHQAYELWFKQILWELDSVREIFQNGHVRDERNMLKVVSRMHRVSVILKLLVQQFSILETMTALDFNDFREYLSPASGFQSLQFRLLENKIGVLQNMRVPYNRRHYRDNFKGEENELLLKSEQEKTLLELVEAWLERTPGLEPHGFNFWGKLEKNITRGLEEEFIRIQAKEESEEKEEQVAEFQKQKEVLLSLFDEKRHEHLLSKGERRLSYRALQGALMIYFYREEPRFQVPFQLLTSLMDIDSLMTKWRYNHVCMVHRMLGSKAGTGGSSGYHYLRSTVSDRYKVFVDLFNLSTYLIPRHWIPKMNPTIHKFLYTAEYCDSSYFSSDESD

With `CC1=C(c2ccccc2)C(CC(=O)C2CCN(C(=O)Cc3ccccc3F)CC2)n2cncc21` (stereo not shown) [Example 138, 2-(2-Fluorophenyl)-1-(4-(2-(7-methyl-6-phenyl-5H-pyrrolo[1,2-c]imidazol-5-yl)acetyl)piperidin-1-yl)ethan-1-one], in test [1], the inhibition at 1 µM was at least 50%. Moreover, in test [2], the inhibition at 1 µM was at least 50% and the inhibition at 10 µM is at least 50%.
Compound `CC1=C(c2ccccc2)C(CC(O)C2CCN(C(=O)Cc3ccccc3F)CC2)n2cncc21` (stereo not shown) [Example 139, 2-(2-Fluorophenyl)-1-(4-(1-hydroxy-2-(7-methyl-6-phenyl-5H-pyrrolo[1,2-c]imidazol-5-yl)ethyl)piperidin-1-yl)ethan-1-one] came in with an inhibition at 1 µM in test [1] of at least 50%. In test [2], this compound displayed an IC50 of under 500 nM, an inhibition at 1 µM of at least 50% and an inhibition at 10 µM of at least 50%.
Compound `CC1=C(c2ccccc2)C(CC(=O)C2CCN(Cc3ccccc3)CC2)n2cncc21` (stereo not shown) [Example 140] yielded an inhibition at 1 µM in test [1] of at most 50%. In test [2], this compound yielded an inhibition at 1 µM of at most 50% and an inhibition at 10 µM of at most 50%.
Take `CC1=C(c2ccccc2)C(CC(O)C2CCN(Cc3ccccc3)CC2)n2cncc21` (stereo not shown) [Example 141]: the inhibition at 1 µM in test [1] is at most 50%. In test [2], this compound showed an inhibition at 1 µM of at most 50% and an inhibition at 10 µM of at most 50%.
The compound `CC1=C(c2ccccc2)C(CC(=O)C2CCN(C(=O)c3ccccc3)CC2)n2cncc21` (stereo not shown) [Example 142] yielded an inhibition at 1 µM in test [1] of at least 50%. In test [2], this compound registered an inhibition at 1 µM of at most 50% and an inhibition at 10 µM of at least 50%.
`CC1=C(c2ccccc2)C(CC(=O)C2CCN(S(=O)(=O)c3ccccc3)CC2)n2cncc21` (stereo not shown) [Example 143]: the inhibition at 1 µM in test [1] is at least 50%. In test [2], the inhibition at 1 µM is at most 50% and the inhibition at 10 µM was at least 50%.
Consider `CC1=C(c2ccccc2)C(CC(O)C2CCN(C(=O)c3ccccc3)CC2)n2cncc21` (stereo not shown) [Example 144], for which the inhibition at 1 µM in test [1] is at most 50%. In addition, in test [2], the IC50 was under 500 nM, the inhibition at 1 µM was at least 50% and the inhibition at 10 µM is at least 50%.
For the compound `CC1=C(c2ccccc2)C(CC(O)C2CCN(S(=O)(=O)c3ccccc3)CC2)n2cncc21` (stereo not shown) [Example 145], the inhibition at 1 µM in test [1] is at least 50%. In test [2], this compound came in with an IC50 of under 500 nM, an inhibition at 1 µM of at least 50% and an inhibition at 10 µM of at least 50%.
In the case of `CCOC(=O)N1CCC(C(=O)CC2C(c3ccccc3)=C(C)c3cncn32)CC1` (stereo not shown) [Example 146], the inhibition at 1 µM in test [1] was at most 50%. In test [2], this compound yielded an inhibition at 1 µM of at most 50% and an inhibition at 10 µM of at least 50%.
On to `CC1=C(c2ccccc2)C(CC(=O)C2CCN(C(=O)C3CCCCC3)CC2)n2cncc21` (stereo not shown) [Example 147], for which the inhibition at 1 µM in test [1] and in test [2] was at most 50% in each case. The same compound had an inhibition at 10 µM in test [2] of at least 50%.
As to `CCOC(=O)N1CCC(C(O)CC2C(c3ccccc3)=C(C)c3cncn32)CC1` (stereo not shown) [Example 148], in test [1], the inhibition at 1 µM is at most 50%. In test [2], this compound gave an IC50 of under 500 nM, an inhibition at 1 µM of at least 50% and an inhibition at 10 µM of at least 50%.
In test [1], `CC1=C(c2ccccc2)C(CC(O)C2CCN(C(=O)C3CCCCC3)CC2)n2cncc21` (stereo not shown) [Example 149] displayed an inhibition at 1 µM of at most 50%. In test [2], this compound registered an IC50 of under 500 nM, an inhibition at 1 µM of at least 50% and an inhibition at 10 µM of at least 50%.
`CC1=C(c2ccccc2)C(CC(O)C2CCN(C(=O)c3ccccn3)CC2)n2cncc21` (stereo not shown) [Example 152] showed an inhibition at 1 µM in test [1] of at most 50%. In test [2], this compound came in with an IC50 of over 500 nM, an inhibition at 1 µM of at most 50% and an inhibition at 10 µM of at least 50%.
On to `CC1=C(c2ccccc2)C(CC(O)C2CCN(C(=O)c3cccnc3)CC2)n2cncc21` (stereo not shown) [Example 157], for which, in test [1], the inhibition at 1 µM was at most 50%. Further, in test [2], the IC50 was over 500 nM, the inhibition at 1 µM is at least 50% and the inhibition at 10 µM is at least 50%.
In turn, `CC1=C(c2ccccc2)C(CC(O)C2CCN(C(=O)Nc3ccccc3)CC2)n2cncc21` (stereo not shown) [Example 158, 4-[1-Hydroxy-2-(7-methyl-6-phenyl-5H-pyrrolo[1,2-c]imidazol-5-yl)-ethyl]-piperidine-1-carboxylic acid phenyl amide] yielded an inhibition at 1 µM in test [1] of at least 50%. In test [2], this compound gave an IC50 of under 500 nM, an inhibition at 1 µM of at least 50% and an inhibition at 10 µM of at least 50%.
In test [1], `CC1=C(c2ccccc2)C(CC(=O)C2CN(C(=O)c3ccccc3)C2)n2cncc21` (stereo not shown) [Example 159, 1-(1-Benzoyl-azetidin-3-yl)-2-(7-methyl-6-phenyl-5H-pyrrolo[1,2-c]imidazol-5-yl)-ethanone] gave an inhibition at 1 µM of at most 50%. In test [2], the inhibition at 1 µM is at most 50% and the inhibition at 10 µM is at least 50%.
Take `CC1=C(c2ccccc2)C(CC(O)C2CCN(C(=O)c3ccncc3)CC2)n2cncc21` (stereo not shown) [Example 162]: the inhibition at 1 µM in test [1] is at most 50%. Besides, in test [2], the inhibition at 1 µM is at most 50% and the inhibition at 10 µM was at least 50%.
As for `CC1=C(c2ccccc2)C(CC(O)C2CCN(S(=O)(=O)C3CCCCC3)CC2)n2cncc21` (stereo not shown) [Example 163, 1-(1-Cyclohexanesulfonyl-piperidin-4-yl)-2-(7-methyl-6-phenyl-5H-pyrrolo[1,2-c]imidazol-5-yl)-ethanol], in test [1], the inhibition at 1 µM was at least 50%. Moreover, in test [2], the IC50 was under 500 nM, the inhibition at 1 µM was at least 50% and the inhibition at 10 µM was at least 50%.
In test [1], `CC1=C(c2ccccc2)C(CC(O)C2CCN(C(=O)c3ccnc(C)c3)CC2)n2cncc21` (stereo not shown) [Example 164, {4-[1-Hydroxy-2-(7-methyl-6-phenyl-5H-pyrrolo[1,2-c]imidazol-5-yl)-ethyl]-piperidin-1-yl}-(2-methyl-pyridin-4-yl)-methanone] returned an inhibition at 1 µM of at most 50%. In test [2], the inhibition at 1 µM was at most 50% and the inhibition at 10 µM was at least 50%.
Consider `CC1=C(c2ccccc2)C(CC(O)C2CCN(S(C)(=O)=O)CC2)n2cncc21` (stereo not shown) [Example 165], for which the inhibition at 1 µM in test [1] was at most 50%. In test [2], the inhibition at 1 µM was at most 50% and the inhibition at 10 µM was at least 50%.
As to `CC1=C(c2ccccc2)C(CC(O)C2CCN(C(=O)Nc3ccccn3)CC2)n2cncc21` (stereo not shown) [Example 167], the inhibition at 1 µM in test [1] was at most 50%. Moreover, in test [2], the half-maximal inhibitory concentration (IC50) was under 500 nM, the inhibition at 1 µM is at least 50% and the inhibition at 10 µM was at least 50%.
Regarding `CC1=C(c2ccccc2)C(CC(F)C2CCCCC2)n2cncc21` (stereo not shown) [Example 168, 5-(2-Cyclohexyl-2-fluoro-ethyl)-7-methyl-6-phenyl-5H-pyrrolo[1,2-c]imidazole], in test [1], the inhibition at 1 µM was at least 50% and the inhibition at 10 µM was at least 50%. Besides, in test [2], the IC50 was over 500 nM, the inhibition at 1 µM is at least 50% and the inhibition at 10 µM was at least 50%.
Regarding `O=C(CC1C(c2ccccc2)=Cc2cncn21)c1ccccc1` (stereo not shown) [Example 169, 1-Phenyl-2-(6-phenyl-5H-pyrrolo[1,2-c]imidazol-5-yl)-ethanone], the inhibition at 10 µM in test [1] was at least 50%. In test [2], this compound had an inhibition at 1 µM of at most 50% and an inhibition at 10 µM of at least 50%.
As to `CCCCC(O)CC1C(c2ccccc2)=C(C)c2cncn21` (stereo not shown) [Example 170, 1-(7-Methyl-6-phenyl-5H-pyrrolo[1,2-c]imidazole-5-yl)-hexan-2-ol], in test [1], the inhibition at 1 µM was at least 50% and the inhibition at 10 µM is at least 50%. In addition, in test [2], the IC50 was over 500 nM, the inhibition at 1 µM is at most 50% and the inhibition at 10 µM was at least 50%.
Regarding `CCOC(=O)CCC(=O)CC1C(c2ccccc2)=C(C)c2cncn21` (stereo not shown) [Example 173, Ethyl 5-(7-methyl-6-phenyl-5H-pyrrolo[1,2-c]imidazol-5-yl)-4-oxopentanoate], in test [1], the inhibition at 1 µM is at most 50%. In test [2], this compound yielded an inhibition at 1 µM of at most 50% and an inhibition at 10 µM of at least 50%.
On to `CC1=C(c2ccccc2)C(CC(O)CCC(=O)N2CCC(O)CC2)n2cncc21` (stereo not shown) [Example 174, 4-Hydroxy-1-(4-hydroxypiperidin-1-yl)-5-(7-methyl-6-phenyl-5H-pyrrolo[1,2-c]imidazol-5-yl)pentan-1-one], for which the inhibition at 1 µM in test [1] was at most 50%. In test [2], this compound came in with an inhibition at 1 µM of at most 50% and an inhibition at 10 µM of at least 50%.
`CC1=C(c2ccccc2)C(CC(=O)c2ccc(NC(=O)Cc3ccccc3F)cc2)n2cncc21` (stereo not shown) [Example 176, 2-(2-fluorophenyl)-N-(4-(2-(7-methyl-6-phenyl-5H-pyrrolo[1,2-c]imidazol-5-yl)acetyl)phenyl)acetamide] yielded an inhibition at 1 µM in test [1] of at least 50%. In test [2], the IC50 was under 500 nM, the inhibition at 1 µM was at least 50% and the inhibition at 10 µM is at least 50%.
In turn, `CC1=C(c2ccccc2)C(CC(=O)C2CCC(=NO)CC2)n2cncc21` (stereo not shown) [Example 177, 4-[2-(7-Methyl-6-phenyl-5H-pyrrolo[1,2-c]imidazol-5-yl)-acetyl]-cyclohexanone oxime] displayed an inhibition at 1 µM in test [1] of at least 50%. In test [2], this compound gave an inhibition at 1 µM of at most 50% and an inhibition at 10 µM of at least 50%.
As to `CC1=C(c2ccccc2)C(CC(O)C2CCC(=NO)CC2)n2cncc21` (stereo not shown) [Example 178, 4-[1-Hydroxy-2-(7-methyl-6-phenyl-5H-pyrrolo[1,2-c]imidazol-5-yl)-ethyl]-cyclohexanone oxime], the inhibition at 1 µM in test [1] was at most 50%. For the same compound, in test [2], the IC50 was under 500 nM, the inhibition at 1 µM was at least 50% and the inhibition at 10 µM is at least 50%.
